Assay results as given in US6756359B2, “C12 modified erythromycin macrolides and ketolides having antibacterial activity” (Chiron Corporation, priority 2001, dated 2004).
≈ marks a conversion by molar mass, not a printed value.

Assays:
Assay in all cases: Antibacterial activity in vitro, MIC by broth microdilution
H. influenzae Hain_49247 = assay type: cell-based, Haemophilus influenzae; details: unit assumed
How it was run: (§1)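 Visible-growth inhibition defined the MIC, obtained by NCCLS broth microdilution at 35° C. over 18-24 hours with a final inoculum of 3×10^5–7×10^5 CFU/mL.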

[1] = system: S. epidermidis Step_14990; assay type: cell-based; details: unit assumed
How it was run: as §1

[2] = system: S. epidermidis Step_f50654 Pen S; assay type: cell-based; details: unit assumed
How it was run: as §1

E. faecalis Enfa_29212 = assay type: cell-based
How it was run: as §1

S. pyogenes Stpy_8668 = assay type: cell-based
How it was run: as §1

E. coli Esco_25922 = assay type: cell-based; details: Table 3, Strain ID M: E. coli Esco_25922; unit assumed
How it was run: as §1

[3] = system: S. pneumoniae Stpn_280-962 Pen S; assay type: cell-based, Streptococcus pneumoniae
How it was run: as §1

[4] = system: S. pneumoniae Stpn_297-749 Pen R; assay type: cell-based, Streptococcus pneumoniae
How it was run: as §1

[5] = system: S. pneumoniae Stpn_Erm 6849; assay type: cell-based, Streptococcus pneumoniae; details: unit assumed
How it was run: as §1

S. pneumoniae Stpn_49619 = assay type: cell-based, Streptococcus pneumoniae
How it was run: as §1

[6] = system: S. pneumoniae Stpn_Mef S 3427; assay type: cell-based, Streptococcus pneumoniae
How it was run: as §1

[7] = system: S. pneumoniae Stpn_Mef 5654; assay type: cell-based, Streptococcus pneumoniae; details: unit assumed
How it was run: as §1

[8] = system: S. pneumoniae Stpn_Erm S 4297; assay type: cell-based, Streptococcus pneumoniae
How it was run: as §1

S. aureus Stau_29213 = assay type: cell-based; details: Table 5, Strain ID A: S. aureus Stau_29213; unit assumed
How it was run: as §1

[9] = Table 3, Strain ID L: H. influenzae Hain_49247
[10] = Table 3, Strain ID A: S. epidermidis Step_14990
[11] = Table 3, Strain ID B: S. epidermidis Step_f50654 Pen S
[12] = Table 3, Strain ID C: E. faecalis Enfa_29212, unit assumed
[13] = Table 3, Strain ID H: S. pneumoniae Stpn_Erm 6849
[14] = Table 3, Strain ID K: S. pneumoniae Stpn_Mef S 3427, unit assumed
[15] = Table 3, Strain ID J: S. pneumoniae Stpn_Mef 5654
[16] = Table 3, Strain ID I: S. pneumoniae Stpn_Erm S 4297, unit assumed
[17] = Table 3, Strain ID C: E. faecalis Enfa_29212
[18] = Table 3, Strain ID D: S. pyogenes Stpy_8668
[19] = Table 3, Strain ID G: S. pneumoniae Stpn_280-962 Pen S
[20] = Table 3, Strain ID F: S. pneumoniae Stpn_297-749 Pen R
[21] = Table 3, Strain ID E: S. pneumoniae Stpn_49619
[22] = Table 3, Strain ID K: S. pneumoniae Stpn_Mef S 3427

Row | SMILES | MIC (H. influenzae Hain_49247; [9]) [µg/mL] | MIC [1, 10] [µg/mL] | MIC [2, 11] [µg/mL] | MIC (E. faecalis Enfa_29212; [12]) [µg/mL] | MIC (E. coli Esco_25922) [µg/mL] | MIC [5, 13] [µg/mL] | MIC [6, 14] [µg/mL] | MIC [7, 15] [µg/mL] | MIC [8, 16] [µg/mL] | MIC (E. faecalis Enfa_29212; [17]) | MIC (S. pyogenes Stpy_8668; [18]) | MIC [3, 19] | MIC [4, 20] | MIC (S. pneumoniae Stpn_49619; [21]) | MIC [6, 22] | other results
1 | CC[C@H]1OC(=O)[C@H](C)C(=O)[C@H](C)[C@@H](O[C@@H]2O[C@H](C)C[C@H](N(C)C)[C@H]2O)[C@@](C)(OC)C[C@@H](C)C2=NCCN3C(=O)O[C@H]1[C@H]3[C@H]2C [Compound 6222] | 25 (≈ 40.1 µM) | 1.56 (≈ 2.5 µM) | 1.56 (≈ 2.5 µM) | 0.4 (≈ 0.641 µM) | 50 (≈ 80.2 µM) | > 50 | 0.4 (≈ 0.641 µM) | 0.78 (≈ 1.25 µM) | > 50 |  |  |  |  |  |  | MIC (S. pyogenes Stpy_8668; Table 3, Strain ID D: S. pyogenes Stpy_8668, unit assumed): 0.2 µg/mL (≈ 0.321 µM); MIC ([3]; Table 3, Strain ID G: S. pneumoniae Stpn_280-962 Pen S, unit assumed): 0.2 µg/mL (≈ 0.321 µM); MIC ([4]; Table 3, Strain ID F: S. pneumoniae Stpn_297-749 Pen R, unit assumed): 0.4 µg/mL (≈ 0.641 µM); MIC (S. pneumoniae Stpn_49619; Table 3, Strain ID E: S. pneumoniae Stpn_49619, unit assumed): 0.2 µg/mL (≈ 0.321 µM)
2 | CC[C@H]1OC(=O)[C@H](C)C(=O)[C@H](C)[C@@H](O[C@@H]2O[C@H](C)C[C@H](N(C)C)[C@H]2O)[C@@](C)(OC)C[C@@H](C)C(=O)[C@H](C)[C@@H]2[C@@H]1OC(=O)N2CCCCc1ccc2ccccc2n1 [Compound 5960] | 3.13 (≈ 4 µM) | 0.2 (≈ 0.256 µM) | 0.2 (≈ 0.256 µM) |  | 25 (≈ 32 µM) | 25 (≈ 32 µM) |  | 0.2 (≈ 0.256 µM) | 0.1 (≈ 0.128 µM) | ≦0.05 | ≦0.05 | ≦0.05 | ≦0.05 | ≦0.05 | ≦0.05 | 
3 | CC[C@H]1OC(=O)[C@H](C)C(=O)[C@H](C)[C@@H](O[C@@H]2O[C@H](C)C[C@H](N(C)C)[C@H]2O)[C@@](C)(OC)C[C@@H](C)C(=O)[C@H](C)[C@@H]2[C@@H]1OC(=O)N2CCCCn1cnc(-c2ccccc2)c1 [Compound 4710] | 3.13 (≈ 3.93 µM) | 0.1 (≈ 0.125 µM) | 0.2 (≈ 0.251 µM) |  | 50 (≈ 62.7 µM) | 0.2 (≈ 0.251 µM) |  | 0.2 (≈ 0.251 µM) |  | ≦0.05 | ≦0.5 | ≦0.5 | ≦0.5 | ≦0.5 | ≦0.5 | MIC ([8]; Table 3, Strain ID I: S. pneumoniae Stpn_Erm S 4297): ≦0.05
4 | CC[C@H]1OC(=O)[C@H](C)C(=O)[C@H](C)[C@@H](O[C@@H]2O[C@H](C)C[C@H](N(C)C)[C@H]2O)[C@@](C)(OC)C[C@@H](C)C(=O)[C@H](C)[C@@H]2[C@@H]1OC(=O)N2CCCCn1cnc2ncccc21 [Compound 4713] | 3.13 (≈ 4.05 µM) | 0.4 (≈ 0.518 µM) | 0.4 (≈ 0.518 µM) | 0.1 (≈ 0.13 µM) | 50 (≈ 64.8 µM) | 0.78 (≈ 1.01 µM) | 0.4 (≈ 0.518 µM) | 3.13 (≈ 4.05 µM) | 0.1 (≈ 0.13 µM) |  | ≦0.5 | ≦0.5 | ≦0.5 | ≦0.5 |  | 
5 | CC[C@H]1OC(=O)[C@H](C)C(=O)[C@H](C)[C@@H](O[C@@H]2O[C@H](C)C[C@H](N(C)C)[C@H]2O)[C@@](C)(OC)C[C@@H](C)C(=O)[C@H](C)[C@@H]2[C@@H]1OC(=O)N2CCCCc1ccnc2ccccc12 [Compound 6220] | 1.56 (≈ 1.99 µM) | 0.1 (≈ 0.128 µM) | 0.1 (≈ 0.128 µM) |  | 6.25 (≈ 7.99 µM) | 3.13 (≈ 4 µM) |  | 0.4 (≈ 0.512 µM) | 0.1 (≈ 0.128 µM) | ≦0.05 | ≦0.05 | ≦0.05 | ≦0.05 | ≦0.05 | ≦0.5 | 
6 | CC[C@H]1OC(=O)[C@H](C)C(=O)[C@H](C)[C@@H](OC2O[C@H](C)C[C@H](N(C)C)[C@H]2O)[C@@](C)(OC)C[C@@H](C)C(=O)[C@H](C)[C@H]2N(CCCC(C)(C)n3cnc4cccnc43)C(=O)O[C@]12CC (stereo partly drawn) [Example 38, (3aS,4R,7R,9R,10R,11S,13R,15R,15aR)-3a,4-diethyl-1-[4-(3H-imidazol[4,5-b]pyridin-3-yl)-4-methylpentyl]-11-methoxy-7,9,11,13,15-pentamethyl-2,6,8,14-tetraoxotetradecahydro-2H-oxacyclotetradecino[4,3-d][1,3]oxazol-10-yl 3,4,6-trideoxy-3-(dimethylamino)-D-xylo-hexopyranoside] |  |  |  |  |  |  |  |  |  |  |  |  |  |  |  | MIC (H. influenzae Hain_49247; Table 5, Strain ID M: H. influenzae Hain_49247): 6.25 µg/mL (≈ 7.55 µM); MIC (S. aureus Stau_29213): 0.2 µg/mL (≈ 0.242 µM); MIC ([1]; Table 5, Strain ID B: S. epidermidis Step_14990): 0.2 µg/mL (≈ 0.242 µM); MIC ([2]; Table 5, Strain ID C: S. epidermidis Step_f50654): 0.2 µg/mL (≈ 0.242 µM); MIC (E. faecalis Enfa_29212; Table 5, Strain ID D: E. faecalis Enfa_29212, unit assumed): 0.1 µg/mL (≈ 0.121 µM); MIC (S. pyogenes Stpy_8668; Table 5, Strain ID E: S. pyogenes Stpy_8668): ≦0.05; MIC ([3]; Table 5, Strain ID H: S. pneumoniae Stpn_280-962): ≦0.05; MIC ([4]; Table 5, Strain ID G: S. pneumoniae Stpn_297-749): ≦0.05; MIC ([5]; Table 5, Strain ID I: S. pneumoniae Stpn_Erm 6849): 0.4 µg/mL (≈ 0.483 µM); MIC (S. pneumoniae Stpn_49619; Table 5, Strain ID F: S. pneumoniae Stpn_49619): ≦0.05; MIC ([6]; Table 5, Strain ID L: S. pneumoniae Stpn_Mef S 3427, unit assumed): 0.1 µg/mL (≈ 0.121 µM); MIC ([7]; Table 5, Strain ID K: S. pneumoniae Stpn_Mef 5654): 0.78 µg/mL (≈ 0.942 µM); MIC ([8]; Table 5, Strain ID J: S. pneumoniae Stpn_Erm S 4297, unit assumed): 0.1 µg/mL (≈ 0.121 µM)
